{"source": "patent US20070054886A1", "about": "“Ras antagonists for treating neurodegenerative disorders” (RAMOT AT TEL AVIV UNIVERSITY, LTD., priority 2003, published 2007)", "key": {"[1]": {"system": "mice subjected to closed head injury (CHI)", "assay": "Lesion volume after CHI in mice", "assay_type": "in vivo, mouse", "conditions": "day 7 after CHI", "procedure": "(§1) Seven days after CHI, vehicle-treated (n=5) and FTS-treated (n=4) mice were decapitated and their brains were removed (within 1 minute), frozen in powdered dry ice, and kept at −70° C. until used. Consecutive 20-μ cryostat sections of the whole forebrain were cut in the coronal plane, and one in every ten sections (i.e. at intervals of 200μ) was thaw-mounted onto coated microscope glass slides.\n(§2) The films were scanned and digitized using PhotoShop and a large bed Umax scanner, and saved in tiff format for accessibility to NIH image software. Using NIH Image routines, the standard curve was measured and used to calibrate regional brain measurements. Morphometry routines were used to measure the lesion area on each section where it was visible. The volume was calculated by multiplying the summed lesion areas by the distance between sections (0.2 mm)."}, "[2]": {"assay": "Pharmacokinetics of [3H]-FTS in the mouse brain", "assay_type": "in vivo", "conditions": "[3H]-FTS 3 mg/kg i.p.", "procedure": "Farnesyl 1-^3H-thiosalicylic acid ([^3H]-FTS), 12.5 Ci/mmol, 1 mCi/mL, was purchased from American Radiolabeled Chemicals (ARC; St. Louis, Mo., U.S.A.). The labeled drug was isotopically diluted with unlabeled FTS. Mice (ICR strain) were injected i.p. with 0.1 ml of this FTS solution (14.8 μCi, 351 nmol, 3 mg/kg). At each time point (2.5, 5, 10, 20, 60, and 120 min) after the injection, two mice were killed and their brains were removed. The forebrains were washed in PBS, weighed and homogenized, and samples were counted in a scintillation fluid using an LKB β-counter with automatic correction for quenching. Data are expressed as [^3H]-FTS in dpm/g tissue as a function of time.\nFirst it was necessary to determine whether FTS can enter the brain, and if so, whether it can exist there in the micromolar concentration range previously found to be relevant to its efficacy as a Ras inhibitor in vitro (Kloog et al. 1999). To this end, we performed pharmacokinetic experiments in which mice received [^3H]-FTS (3 mg/kg, i.p.), and the amounts of labeled inhibitor in the brain were then determined by counting radioactivity in samples of brain homogenates. […] Based on the specific activity of [^3H]-FTS and assuming a homogeneous distribution in the brain, we estimated that the peak concentration of FTS was 4.5 μM. Thus, under the conditions employed here, it appears that a pharmacologically relevant concentration of FTS in the brain was achieved."}, "[3]": {"system": "NMDA receptors (NMDAR)", "assay": "NMDAR quantitative autoradiography ([3H]MK-801 binding) in brain sections of CHI mice", "assay_type": "in vivo, mouse", "conditions": "seven days after CHI, FTS 5 mg/kg 1 hr after CHI", "procedure": "as §1\nNMDAR autoradiography was performed as described (Bowery et al., 1988), with some modifications. […] At the end of incubation, the sections were dipped for 5 seconds in ice-cold buffer, washed for 90 minutes in cold fresh buffer, and then dipped in ice-cold distilled water. The dried tissue sections were exposed to tritium-sensitive film accompanied by commercial calibrated tritium standard scales (Amersham). After exposure for 36 days, the films were developed in Kodak D-19, fixed, and dried. The sections were then stained with cresyl violet for anatomical region placement according to a mouse brain atlas (Paxinos and Franklin, 1997) and for identification of lesions.\nas §2"}, "[4]": {"system": "mice subjected to closed head injury (CHI)", "assay": "Neurobehavioral evaluation (neurological severity score, NSS) of CHI mice", "assay_type": "in vivo, mouse", "text": "The neurological severity score (NSS) is a tool for assessing an animal's functional status. It is based on the ability of the animal to perform different motor and behavioral tasks representing motor ability, balancing, and alertness (Beni-Adani et al., 2001). Scores range from zero, achieved by healthy uninjured animals, to a maximum of 10, indicating severe neurological dysfunction, with failure of all tasks. The NSS obtained 1 hr after trauma reflects the initial severity of injury and is inversely correlated with neurological outcome. Animals were evaluated 1 hour after CHI, and again at 24 and 48 hrs and at 5 and 7 days. To assess the effect of FTS on neurological recovery, mice were randomly assigned to treatment with either FTS or vehicle (n=10 per group), administered immediately after the initial NSS evaluation. Each animal was assessed by an observer who was blinded to the treatment it had received. The extent of recovery (ΔNSS) was calculated as the difference between the NSS at 1 hr and at any subsequent time point. Thus, a higher ΔNSS reflects better recovery. This parameter therefore serves as a tool for evaluation of drug effects."}, "[5]": {"conditions": "left (ipsilateral) hemisphere, mean ± SD, 4 mice"}, "[6]": {"conditions": "right (contra-lateral) hemisphere, mean ± SD, 4 mice"}}, "note": "Entries after “also recorded” stand apart in the source; their conditions may differ."}
{"smiles": "CC(C)=CCC/C(C)=C/CC/C(C)=C/CSc1ccccc1C(=O)O", "note": "[FTS, farnesyl-thiosalicylic acid]", "values": [{"measurement": "mean lesion volume", "setting": "[1]; FTS 5 mg/kg 1 hr after CHI, mean±SD of 4 animals, control 155±41 μL, p<0.07", "value": "87 ± 53", "unit": "µL"}, {"measurement": "reduction in lesion volume (lesion size)", "setting": "[1]; FTS 5 mg/kg vs vehicle, trend, p<0.07", "value": 50, "unit": "%"}, {"measurement": "lesion volume, range", "setting": "[1]; FTS 5 mg/kg, 4 animals", "value": "37 to 161", "unit": "µL"}, {"measurement": "entry of FTS into the brain", "setting": "[2]; mouse", "value": "enters the mouse brain; also recorded: crosses the blood-brain barrier"}, {"measurement": "time for which FTS amounts in the brain remain relatively high", "setting": "[2]; mouse forebrain", "value": "at least 2 hrs"}, {"measurement": "time to peak amounts of FTS in the brain", "setting": "[2]; mouse forebrain", "value": "20 to 30", "unit": "min"}, {"measurement": "peak concentration of FTS in the brain", "setting": "[2]; estimated from specific activity assuming homogeneous distribution in the brain", "value": 4.5, "unit": "µM"}, {"measurement": "effect of trauma on the binding of [3H]-MK-801 to the NMDA receptors", "setting": "[3]; ANOVA, no significant difference between sides (P=0.5)", "value": "completely reversed"}, {"measurement": "NMDA-receptor density, dorsal striatum, left", "setting": "[3]; [5]", "value": "4.32 ± 0.32 nCi of [^3H]-MK-801 specifically bound/mg"}, {"measurement": "NMDA-receptor density, frontal motor cortex, left", "setting": "[3]; [5]", "value": "6.32 ± 2.12 nCi of [^3H]-MK-801 specifically bound/mg"}, {"measurement": "NMDA-receptor density, hippocampus CA1, left", "setting": "[3]; [5]", "value": "9.85 ± 1.34 nCi of [^3H]-MK-801 specifically bound/mg"}, {"measurement": "NMDA-receptor density, hippocampus CA3, left", "setting": "[3]; [5]", "value": "7.69 ± 0.96 nCi of [^3H]-MK-801 specifically bound/mg"}, {"measurement": "NMDA-receptor density, parietal cortex, left", "setting": "[3]; [5]", "value": "5.69 ± 1.18 nCi of [^3H]-MK-801 specifically bound/mg"}, {"measurement": "NMDA-receptor density, perirhinal cortex, left", "setting": "[3]; [5]", "value": "5.92 ± 0.72 nCi of [^3H]-MK-801 specifically bound/mg"}, {"measurement": "NMDA-receptor density, piriform cortex, left", "setting": "[3]; [5]", "value": "5.65 ± 1.54 nCi of [^3H]-MK-801 specifically bound/mg"}, {"measurement": "NMDA-receptor density, ventral striatum, left", "setting": "[3]; [5]", "value": "4.06 ± 1.82 nCi of [^3H]-MK-801 specifically bound/mg"}, {"measurement": "NMDA-receptor density, dorsal striatum, right", "setting": "[3]; [6]", "value": "5.45 ± 1.72 nCi of [^3H]-MK-801 specifically bound/mg"}, {"measurement": "NMDA-receptor density, frontal motor cortex, right", "setting": "[3]; [6]", "value": "6.63 ± 1.7 nCi of [^3H]-MK-801 specifically bound/mg"}, {"measurement": "NMDA-receptor density, hippocampus CA1, right", "setting": "[3]; [6]", "value": "9.25 ± 0.32 nCi of [^3H]-MK-801 specifically bound/mg"}, {"measurement": "NMDA-receptor density, hippocampus CA3, right", "setting": "[3]; [6]", "value": "7.23 ± 0.42 nCi of [^3H]-MK-801 specifically bound/mg"}, {"measurement": "NMDA-receptor density, parietal cortex, right", "setting": "[3]; [6]", "value": "7.04 ± 1.46 nCi of [^3H]-MK-801 specifically bound/mg"}, {"measurement": "NMDA-receptor density, perirhinal cortex, right", "setting": "[3]; [6]", "value": "5.97 ± 0.88 nCi of [^3H]-MK-801 specifically bound/mg"}, {"measurement": "NMDA-receptor density, piriform cortex, right", "setting": "[3]; [6]", "value": "5.57 ± 0.84 nCi of [^3H]-MK-801 specifically bound/mg"}, {"measurement": "NMDA-receptor density, ventral striatum, right", "setting": "[3]; [6]", "value": "5.21 ± 0.54 nCi of [^3H]-MK-801 specifically bound/mg"}, {"measurement": "median recovery after seven days (ΔNSS)", "setting": "[4]; mice processed for autoradiography and histology (4 FTS-treated), vehicle 0, p<0.05", "value": 2}, {"measurement": "mean ΔNSS on day 7 after injury", "setting": "[4]; mice, FTS 5 mg/kg i.p. 1 hr after CHI, n=10, controls 1.7", "value": 4.2}, {"measurement": "NSS 1 hour after injury", "setting": "[4]; mice, baseline before treatment, FTS-treatment group, n=10, mean±SD, scale 0-10", "value": "6.7±0.3"}, {"measurement": "reduction of CHI-induced neurological deficits / improvement of neurological status (extent of recovery)", "setting": "[4]; mice, single dose FTS 5 mg/kg, up to 7 days after CHI, P<0.0001", "value": 60, "unit": "%"}]}
